Reference: patent publication US7790771B1, “Use of tosylchloramide(s) for treating disease of the skin, mucous membrane, organs and tissues” (Engelhard Arzneimittel GmbH & Co., priority 1999, dated 2010)

Assay: Treatments of Example 5 repeated with corticoid-free bases containing only chloramine T
Type: in vivo
Details: powder added to the bath water
Procedure: Instead of adhesive salve Volon A with added chloramine T, a normal cooling salve was prepared—“unguentum leniens” which merely contained chloramine T-powder (2% by weight) as active ingredient, but no corticoid. The success described under Example 5 was the same.

## Cc1ccc(S(=O)(=O)NCl)cc1.[Na] [chloramine T, tosylchloramide-sodium]
  treatment results compared with Example 5: comparable results
